Laboratory results as given in article PMC7667638 (Journal of Medicinal Chemistry, 2020).
Read-outs that look alike come from different tables or passages of the source.

Tests used:
hNaV1.7 [1] = target: T1, hNaV1.7 (Homo sapiens, UniProt Q15858); assay: cell-based; conditions: SEM
hNaV1.7 [2] = target: T1, hNaV1.7; assay: cell-based; assay type: cell-based
hNaV1.4 [3] = target: T2, hNaV1.4 (Homo sapiens, UniProt P35499); assay: cell-based; assay type: cell-based
hNaV1.4 [4] = target: T2, hNaV1.4; assay: cell-based; conditions: for IC50: SEM
hNaV1.7 [5] = target: T1, hNaV1.7; conditions: SEM; cited from earlier work
hNaV1.4 [6] = target: T2, hNaV1.4; conditions: cited from earlier work
rNaV1.4 = conditions: read-out: IC50 (nM ± SEM), rat NaV1.4; cited from earlier work

T1 sequence (Q15858 whole entry, looked up): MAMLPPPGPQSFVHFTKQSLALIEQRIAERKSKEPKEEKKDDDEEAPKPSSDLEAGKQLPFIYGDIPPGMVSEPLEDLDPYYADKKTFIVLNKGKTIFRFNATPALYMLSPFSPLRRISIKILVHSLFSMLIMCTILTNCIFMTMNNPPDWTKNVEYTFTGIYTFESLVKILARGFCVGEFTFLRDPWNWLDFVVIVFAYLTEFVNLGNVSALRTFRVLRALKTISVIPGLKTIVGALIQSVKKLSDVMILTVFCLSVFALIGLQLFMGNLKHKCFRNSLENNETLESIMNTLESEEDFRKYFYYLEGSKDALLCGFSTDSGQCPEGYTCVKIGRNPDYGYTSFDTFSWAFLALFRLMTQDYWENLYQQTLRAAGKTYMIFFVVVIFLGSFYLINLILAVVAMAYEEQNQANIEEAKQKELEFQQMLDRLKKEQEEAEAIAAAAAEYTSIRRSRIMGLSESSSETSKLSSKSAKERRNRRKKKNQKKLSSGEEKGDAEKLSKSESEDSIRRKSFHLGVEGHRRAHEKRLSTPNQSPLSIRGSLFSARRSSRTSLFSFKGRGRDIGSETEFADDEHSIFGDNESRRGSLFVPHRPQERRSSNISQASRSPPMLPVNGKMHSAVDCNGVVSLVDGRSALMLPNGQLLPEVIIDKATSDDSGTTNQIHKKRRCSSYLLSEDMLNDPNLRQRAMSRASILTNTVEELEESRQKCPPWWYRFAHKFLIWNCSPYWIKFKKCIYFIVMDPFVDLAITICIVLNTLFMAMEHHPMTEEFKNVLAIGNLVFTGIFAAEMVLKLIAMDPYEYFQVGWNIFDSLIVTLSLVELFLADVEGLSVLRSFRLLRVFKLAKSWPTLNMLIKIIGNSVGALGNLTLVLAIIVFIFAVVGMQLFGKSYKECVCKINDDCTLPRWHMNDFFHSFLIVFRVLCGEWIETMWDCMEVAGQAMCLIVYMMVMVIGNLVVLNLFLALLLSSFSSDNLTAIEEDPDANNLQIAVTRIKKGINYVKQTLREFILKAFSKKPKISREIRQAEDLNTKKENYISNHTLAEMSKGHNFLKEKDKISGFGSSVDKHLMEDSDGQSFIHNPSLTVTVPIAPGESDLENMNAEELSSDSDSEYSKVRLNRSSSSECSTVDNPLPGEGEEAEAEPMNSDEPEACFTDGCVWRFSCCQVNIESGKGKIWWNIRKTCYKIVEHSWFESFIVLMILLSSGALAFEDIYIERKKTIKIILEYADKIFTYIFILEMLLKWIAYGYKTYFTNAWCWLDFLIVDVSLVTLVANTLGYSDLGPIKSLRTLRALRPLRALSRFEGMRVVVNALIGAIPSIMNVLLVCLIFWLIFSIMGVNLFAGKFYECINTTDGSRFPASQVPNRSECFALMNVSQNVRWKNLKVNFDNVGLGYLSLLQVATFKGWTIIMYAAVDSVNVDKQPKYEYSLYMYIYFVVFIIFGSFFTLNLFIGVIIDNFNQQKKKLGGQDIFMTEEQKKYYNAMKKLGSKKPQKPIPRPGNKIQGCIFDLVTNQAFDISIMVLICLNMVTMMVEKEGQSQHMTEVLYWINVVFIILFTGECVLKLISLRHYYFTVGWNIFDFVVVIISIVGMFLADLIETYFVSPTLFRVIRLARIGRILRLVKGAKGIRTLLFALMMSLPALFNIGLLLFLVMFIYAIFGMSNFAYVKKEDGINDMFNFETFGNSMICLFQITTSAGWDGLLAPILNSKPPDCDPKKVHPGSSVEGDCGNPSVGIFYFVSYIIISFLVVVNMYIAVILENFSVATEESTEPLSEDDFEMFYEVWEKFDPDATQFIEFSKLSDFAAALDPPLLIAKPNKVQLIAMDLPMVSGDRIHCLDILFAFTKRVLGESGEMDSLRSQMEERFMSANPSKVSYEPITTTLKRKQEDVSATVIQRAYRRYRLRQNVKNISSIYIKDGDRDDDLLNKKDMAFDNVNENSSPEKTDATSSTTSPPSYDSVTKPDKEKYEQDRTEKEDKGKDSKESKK
T2 sequence (P35499 whole entry, looked up): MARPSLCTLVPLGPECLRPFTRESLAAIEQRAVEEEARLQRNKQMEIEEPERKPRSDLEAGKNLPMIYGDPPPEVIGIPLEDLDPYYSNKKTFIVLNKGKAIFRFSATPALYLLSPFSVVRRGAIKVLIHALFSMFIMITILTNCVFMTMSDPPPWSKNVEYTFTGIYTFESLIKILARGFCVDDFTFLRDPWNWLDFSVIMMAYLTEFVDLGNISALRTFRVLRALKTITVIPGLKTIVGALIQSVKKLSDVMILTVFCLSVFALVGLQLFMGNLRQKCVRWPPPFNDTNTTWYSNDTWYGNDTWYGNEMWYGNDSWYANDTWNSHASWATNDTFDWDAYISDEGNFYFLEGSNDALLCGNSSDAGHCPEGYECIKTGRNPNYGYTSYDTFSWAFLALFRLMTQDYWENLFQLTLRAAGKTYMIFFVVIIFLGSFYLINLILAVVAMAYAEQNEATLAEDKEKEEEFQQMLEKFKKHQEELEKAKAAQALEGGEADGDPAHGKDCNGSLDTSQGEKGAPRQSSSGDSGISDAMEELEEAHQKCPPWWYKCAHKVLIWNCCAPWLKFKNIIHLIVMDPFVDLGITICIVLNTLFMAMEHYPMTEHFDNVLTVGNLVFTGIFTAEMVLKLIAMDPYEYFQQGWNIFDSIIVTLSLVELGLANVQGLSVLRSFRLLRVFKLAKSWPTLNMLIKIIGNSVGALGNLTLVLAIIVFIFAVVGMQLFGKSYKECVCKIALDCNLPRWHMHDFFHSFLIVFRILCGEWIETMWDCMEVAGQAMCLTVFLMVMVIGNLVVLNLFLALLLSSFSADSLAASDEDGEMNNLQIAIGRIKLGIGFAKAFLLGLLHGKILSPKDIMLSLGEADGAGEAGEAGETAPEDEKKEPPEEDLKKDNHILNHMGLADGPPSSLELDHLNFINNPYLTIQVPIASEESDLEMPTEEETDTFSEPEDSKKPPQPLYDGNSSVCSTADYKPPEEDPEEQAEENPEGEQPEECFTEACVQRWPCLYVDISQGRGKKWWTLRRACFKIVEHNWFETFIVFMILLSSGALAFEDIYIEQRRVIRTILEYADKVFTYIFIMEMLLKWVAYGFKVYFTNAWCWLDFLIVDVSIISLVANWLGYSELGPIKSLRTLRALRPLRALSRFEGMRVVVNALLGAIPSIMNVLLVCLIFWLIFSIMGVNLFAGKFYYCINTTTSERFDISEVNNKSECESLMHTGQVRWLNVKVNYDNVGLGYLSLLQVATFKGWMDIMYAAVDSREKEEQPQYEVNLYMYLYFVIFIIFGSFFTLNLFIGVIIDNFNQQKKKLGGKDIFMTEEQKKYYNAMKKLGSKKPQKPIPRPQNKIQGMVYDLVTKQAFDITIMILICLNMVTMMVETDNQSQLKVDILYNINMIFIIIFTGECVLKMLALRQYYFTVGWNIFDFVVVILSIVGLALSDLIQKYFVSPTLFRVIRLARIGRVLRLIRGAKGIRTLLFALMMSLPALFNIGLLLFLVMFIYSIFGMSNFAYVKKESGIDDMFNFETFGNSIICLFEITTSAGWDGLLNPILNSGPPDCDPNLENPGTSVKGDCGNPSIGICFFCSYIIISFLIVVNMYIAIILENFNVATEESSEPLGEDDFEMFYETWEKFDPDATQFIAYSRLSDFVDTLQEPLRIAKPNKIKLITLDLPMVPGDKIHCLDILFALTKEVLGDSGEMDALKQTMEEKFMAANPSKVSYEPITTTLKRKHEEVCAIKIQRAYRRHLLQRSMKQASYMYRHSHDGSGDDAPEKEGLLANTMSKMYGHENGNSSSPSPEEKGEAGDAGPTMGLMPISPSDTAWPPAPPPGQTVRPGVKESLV

[N-]=[N+]=NCCCC[C@H](N)C(=O)N[C@H]1CSSC[C@@H]2NC(=O)[C@H](CCCNC(=N)N)NC(=O)[C@H](CO)NC(=O)[C@H](Cc3c[nH]cn3)NC(=O)[C@H](CC(=O)O)NC(=O)[C@H](CCCNC(=N)N)NC(=O)[C@@H]3CSSC[C@H](NC1=O)C(=O)N[C@@H](CC(N)=O)C(=O)N[C@@H](CSSC[C@@H](C(N)=O)NC2=O)C(=O)N[C@@H](CO)C(=O)N[C@@H](CO)C(=O)N[C@@H](CCCCN)C(=O)N[C@@H](Cc1c[nH]c2ccccc12)C(=O)N3 [AzK-KIIIA]
IC50 (hNaV1.7 [1]): 96 ± 41 nM | recovery of sodium current at end of washout, hNaV1.7 (hNaV1.7 [2]): 12.6 ± 1.2% | koff (hNaV1.7 [2]; read-out: koff, hNaV1.7, SEM): 0.000392 s⁻¹ | kon (hNaV1.7 [2]; read-out: kon, hNaV1.7): 16200 M⁻¹ s⁻¹ | recovery of sodium current at end of washout, hNaV1.4 (hNaV1.4 [3]): ~40% | koff (hNaV1.4 [3]; read-out: koff, hNaV1.4, SEM): 0.00118 s⁻¹ | kon (hNaV1.4 [3]; read-out: kon, hNaV1.4): 39700 M⁻¹ s⁻¹ | IC50 relative to 1, hNaV1.4 (hNaV1.4 [4]): 3.6× ↑ | IC50 (hNaV1.4 [4]): 32 ± 10 nM

N=C(N)NCCC[C@@H]1NC(=O)[C@H](CO)NC(=O)[C@H](Cc2c[nH]cn2)NC(=O)[C@H](CC(=O)O)NC(=O)[C@H](CCCNC(=N)N)NC(=O)[C@@H]2CSSC[C@@H]3NC(=O)[C@@H](NC(=O)[C@@H](N)CCCCn4cc(C[C@H](N)C(=O)NCCOCCOCCOCCOCCC(=O)NCCOCCOCCOCCOCCC(=O)NCCOCCOCCOCCOCCC(=O)NCCOCCOCCOCCOCCC(=O)NN)nn4)CSSC[C@H](NC1=O)C(=O)N[C@H](C(N)=O)CSSC[C@H](NC(=O)[C@H](CC(N)=O)NC3=O)C(=O)N[C@@H](CO)C(=O)N[C@@H](CO)C(=O)N[C@@H](CCCCN)C(=O)N[C@@H](Cc1c[nH]c3ccccc13)C(=O)N2 [[K-KIIIA]-[PEG80]]
IC50 relative to 1, hNaV1.4 (hNaV1.4 [4]): 16.0× ↑ | IC50 (hNaV1.4 [4]): 144 ± 46 nM

N=C(N)NCCC[C@@H]1NC(=O)[C@H](CO)NC(=O)[C@H](Cc2c[nH]cn2)NC(=O)[C@H](CC(=O)O)NC(=O)[C@H](CCCNC(=N)N)NC(=O)[C@@H]2CSSC[C@@H]3NC(=O)[C@@H](N)CSSC[C@@H](C(N)=O)NC(=O)[C@H](CSSC[C@H](NC(=O)[C@H](CC(N)=O)NC3=O)C(=O)N[C@@H](CO)C(=O)N[C@@H](CO)C(=O)N[C@@H](CCCCN)C(=O)N[C@@H](Cc3c[nH]c4ccccc34)C(=O)N2)NC1=O [µ-KIIIA-ox-p2]
IC50 (hNaV1.7 [1]): 154 ± 15 nM

N=C(N)NCCC[C@@H]1NC(=O)[C@H](CO)NC(=O)[C@H](Cc2c[nH]cn2)NC(=O)[C@H](CC(=O)O)NC(=O)[C@H](CCCNC(=N)N)NC(=O)[C@@H]2CSSC[C@@H]3NC(=O)[C@@H](N)CSSC[C@H](NC1=O)C(=O)N[C@H](C(N)=O)CSSC[C@H](NC(=O)[C@H](CC(N)=O)NC3=O)C(=O)N[C@@H](CO)C(=O)N[C@@H](CO)C(=O)N[C@@H](CCCCN)C(=O)N[C@@H](Cc1c[nH]c3ccccc13)C(=O)N2 [μ-KIIIA, μ-conotoxin KIIIA]
IC50 (hNaV1.7 [1]): 132 ± 37 nM

E1G, E4G, Y33W huwentoxin-IV [m3-HwTx-IV]
IC50 (hNaV1.7 [5]): 0.4 ± 0.1 nM | IC50 (hNaV1.4 [6]; SEM): 369 ± 196 nM | IC50 (hNaV1.4 [6]; read-out: IC50 (nM ± SEM), hNaV1.4): 370 nM

μ-theraphotoxin-Hs2a [HwTx-IV]
IC50 (rNaV1.4): 400 nM
